{"source": "patent US20090298707A1", "about": "“SPARSE MATRIX SYSTEM AND METHOD FOR IDENTIFICATION OF SPECIFIC LIGANDS OR TARGETS” (priority 2008, published 2009)", "key": {"[1]": {"test_system": "Candida albicans cells (strain 4741)", "test": "Pilot library binding to Candida albicans cells", "details": "fluorescence image", "procedure": "(§1) Peptide samples were prepared at a concentration of 25 μM for screening against a variety of organisms by exposing immobilized bacteria to labeled peptides. For bacterial cell binding assays, cells were grown overnight, washed, and immobilized in a polylysine-coated 96-well plate. Fluorescein-labeled peptide samples were applied to immobilized bacteria, incubated for 10 minutes and washed extensively to remove unbound peptide. Samples were visualized by fluorescence microscopy. For each peptide, both brightfield and fluorescence images were collected, and camera and microscope settings were not altered between images. The locations of cells and background regions were determined using the brightfield images; those regions were then selected in the fluorescence images for quantitation of pixel values for determination of relative fluorescence intensities (represented as bacterial fluorescence/background fluorescence) using the GNU Image Manipulation Program (The GIMP, see, e.g., www.gimp.org).\n(§2) The use of this technology is not limited to bacterial surfaces."}, "[2]": {"test_system": "Chinese Hamster Ovary (CHO) cells", "test": "Pilot library binding to CHO cells", "details": "fluorescence image", "procedure": "as §1, §2"}, "[3]": {"test_system": "S. aureus AM1", "test": "Pulldown binding assay, Langmuir isotherm fit, S. aureus", "set-up": "species or system Staphylococcus aureus", "source_text": "(§3) To investigate whether the changes in the observed level of binding were due to changes in the affinities or avidities of the refined peptides for cell surfaces, binding curves were generated for selected peptides and fit to the Langmuir isotherm (where possible), the simplest model describing binding to surfaces (peptides showing either complex or nonspecific binding isotherms were excluded from this analysis).\n(§4) Measurements were taken of the absorbance of the labeled peptide at 488 nm (the peak absorbance of the fluorescein label) before and after exposure to the cells. The amount of peptide bound was calculated by comparing the ratio of the final (Af) and initial (Ai) absorbances to the initial concentration (C0)[Cbound=C0(1−(Af/Ai))]. Bacterial surface area per sample was calculated using a stage micrometer to determine the average cell diameter for each species (1.0+/−0.1 μm for S. aureus AM1, 2.7+/−0.1 μm for M. luteus MS2), treating individual cells as discrete spheres. Average cell concentration per unit OD600 was calculated using a hemocytometer.\n(§5) Plots were then generated of the amount of peptide bound per m^2 of bacterial surface area vs. the concentration of unbound peptide at equilibrium. Where possible, the resulting isotherms were fit to the Langmuir isotherm (P/A=(KaNCeq)/(1+KaCeq), where P/A represents the molar amount of peptide bound per unit of bacterial surface area, Ka is the association constant of the peptide with the bacterial surface (L/Mol), N is the maximum surface concentration (mol/m^2), and Ceq is the molar concentration of unbound peptide at equilibrium) (Calis et al. (1995) Pharm Res 12(7): 1072-1076). Data plots and curvefits were obtained using Kaleidagraph (Synergy Software)."}, "[4]": {"test_system": "M. luteus MS2", "test": "Pulldown binding assay, Langmuir isotherm fit, M. luteus", "set-up": "species or system Micrococcus luteus", "source_text": "as §3, §4, §5"}, "[5]": {"test_system": "immobilized S. aureus cells", "test": "Fluorescence microscopy binding of labeled peptides to immobilized bacteria, S. aureus", "set-up": "species or system Staphylococcus aureus", "details": "25 μM fluorescein-labeled peptide, 10 minutes, immobilized cells", "procedure": "as §1\nThe following bacterial species and strains were used: Lactobacillus casei (strain), Escherichia coli (W3110), Enterococcus faecium (strain), Streptococcus mutans (UA140), Streptococcus mitis (ATCC 903), Streptococcus gordonii (NY101), Pseudomonas aeruginosa(strain K), Klebsiella pneumoniae (KAY2026), Myxococcus xanthus (Strains DK1622, wildtype, and difA, exopolysaccharide deficient^21), Micrococcus luteus (strain MS2, a community isolate), Staphylococcus epidermidis (strain), and Staphylococcus aureus(strains, and AM1, a methicillin/oxacillin-resistant community isolate).\nFor isolation of community-acquired S. aureus and M. luteus strains (strains MS2 and AM1), swabs were collected from the nostrils of several volunteers and streaked on Brain-Heart Infusion (BHI) agar and incubated at 37° C. overnight. Yellow colonies were isolated and typed (Microbial ID, Inc., Newark, Del.). Antibiotic resistance was assayed by plating on BHI in the presence of various antibiotics. Commercially available antibiotic susceptibility test disks were used to assay for oxacillin resistance (BD Biosciences), according to the manufacturer's instructions. Due to the difficulty of obtaining methicillin, oxacillin resistance was used as a proxy for methicillin resistance in isolated strains.^22\nThe peptides comprising these two refined libraries were synthesized, labeled, and screened against immobilized S. aureus cells exactly as for the original pilot library.\n(§6) To examine the specificities of the peptides identified in this experiment, a diverse panel of various strains of bacteria was assembled, consisting of Lactobacillus casei, Escherichia coli, Enterococcus faecalis, Streptococcus mutans, Streptococcus mitis, Streptococcus gordonii, Pseudomonas aeruginosa, Klebsiella pneumoniae, Micrococcus luteus (strain MS2), Staphylococcus epidermidis, and two strains of Staphylococcus aureus: a methicillin/oxacillin-sensitive community isolate and our methicillin/oxacillin-resistant community isolate of (strain AM1). Peptides 3C and 4D from the original pilot library were screened for binding against these bacteria by fluorescence microscopy, and images were analyzed as before."}, "[6]": {"test_system": "M. luteus", "test": "Fluorescence microscopy binding of labeled peptides to immobilized bacteria, M. luteus", "set-up": "species or system Micrococcus luteus", "details": "25 μM fluorescein-labeled peptide, immobilized cells", "procedure": "as §1, with “www.gimp.org). […]” for “www.gimp.org).”\nas §6"}, "[7]": {"test_system": "diverse panel of various strains of bacteria", "test": "Specificity screen by fluorescence microscopy against a bacterial panel", "format": "binding", "details": "bacteria other than S. aureus and M. luteus", "procedure": "as §1, with “www.gimp.org). […]” for “www.gimp.org).”\nas §6"}, "[8]": {"details": "maximum surface concentration from Langmuir fit"}}, "note": "“Also recorded” adds a separate entry of the source."}
{"substance": "Pilot Library 3A: pilot library 9-mer, SEQ ID NO:11 (WWSYWWTQW; synthetic pilot library peptide A3)", "values": [{"measurement": "Binding to C. albicans", "setting": "[1]", "result": "binding"}, {"measurement": "Binding to CHO cells", "setting": "[2]", "result": "binding"}]}
{"substance": "Pilot Library 4D: pilot library 9-mer, SEQ ID NO:30; corner of the in-plane matrix (SEQ ID NO:61) (VAKDVAERV; synthetic pilot library peptide D4)", "values": [{"measurement": "Langmuir Affinity (Ka)", "setting": "[3]; association constant from Langmuir isotherm fit, fluorescein-labeled peptide 0-100 μM", "result": "5 ± 3", "unit": "M^−1 × 10000"}, {"measurement": "Monolayer Concentration (N)", "setting": "[3]; [8]", "result": "0.12 ± 0.3", "unit": "Mol/m^2 × 0.0001"}, {"measurement": "Langmuir Affinity (Ka)", "setting": "[4]; association constant from Langmuir isotherm fit", "result": "5 ± 2", "unit": "M^−1 × 10000"}, {"measurement": "Monolayer Concentration (N)", "setting": "[4]; [8]", "result": "0.16 ± 0.02", "unit": "Mol/m^2 × 0.0001"}, {"measurement": "Binding to S. aureus (fluorescent staining)", "setting": "[5]", "result": "Binding was clearly seen"}, {"measurement": "Binding to S. aureus (fluorescent staining)", "setting": "[5]; listed as Pilot Library D4", "result": "some of the brightest unique staining"}, {"measurement": "Binding to M. luteus (fluorescent staining)", "setting": "[6]", "result": "Binding was clearly seen"}, {"measurement": "Binding to the other bacteria of the panel", "setting": "[7]", "result": "significant levels of binding to several of the other bacteria tested; also recorded: significant binding to several strains"}]}
